These results are taken from patent publication US7375220B2, “Method of treating diseases and conditions associated with an altered level of amyloid β peptides and new enolcarboxamide compounds” (Boehringer Ingelheim Vetmedica GmbH, priority 2004, dated 2008).

Molecules are shown by their SMILES.

In one series the test system is Aβ42. The conditions noted are these: according to table 3 of WO 01/78721; cited from earlier work.

`O=C(Nc1ccccc1C(F)(F)F)C1C(=O)N(Cc2ccc(F)cc2)S(=O)(=O)c2ccc(Cl)cc21` (centres unmarked) [Example 14, 6-Chloro-3,4-dihydro-2-(4-fluorobenzyl)-3-oxo-2H-1,2-benzothiazine-4-(2-trifluoromethyl)carboxanilide 1,1-dioxide] returned a melting point of 198 to 199 °C.
As to `CN1C(C(=O)Nc2ccccn2)=C(O)c2ccccc2S1(=O)=O` [piroxicam], in the series with Aβ42, the Aβ42 level entry was “do not lower or even increase the Aβ42 level”.
`O=C(Nc1cccc(C(F)(F)F)c1)C1C(=O)N(Cc2ccc(F)cc2)S(=O)(=O)c2ccc(Cl)cc21` (centres unmarked) [Example 15, 6-Chloro-3,4-dihydro-2-(4-fluorobenzyl)-3-oxo-2H-1,2-benzothiazine-4-(3-trifluoromethyl)carboxanilide 1,1-dioxide] had a melting point of 183 to 184 °C.
Regarding `Cc1cc(NC(=O)C2=C(O)c3ccccc3S(=O)(=O)N2C)no1` [isoxicam], in the series on Aβ42, the Aβ42 level entry was “do not lower or even increase the Aβ42 level”.
In turn, `CN1C(=O)C(C(=O)Nc2ccc(Cl)cc2)c2ccc3c(c2S1(=O)=O)CCCC3` (centres unmarked) [Example 13, 3,4,7,8,9,10-Hexahydro-2-methyl-3-oxo-2H-naphtho[2,1-e]-1,2-thiazine-4-(4-chloro)carboxanilide 1,1-dioxide] returned a melting point of 106 to 108 °C.
